ChEMBL document CHEMBL1201862, “PubChem BioAssay data set” (2004)
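Growth conditions: 96-well plates. Treatment: test compound, 48 hours, 5 concentrations. Analysis: linear interpolation between bracketing concentrations; unreached endpoints set to highest concentration. GI50: concentration for 50% inhibition of growth.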 Active and inactive are the calls of the source. No stated cut-off is given here; in the data, active = GI50 up to about 1.1 µM and inactive = higher.

What was measured:
Assay in all cases: NCI-60 cell line screen, 48 h
[1] = system: SF-268
[2] = system: SR
[3] = system: KM-20L2
[4] = system: LXFL 529
[5] = system: SF-295
[6] = system: SK-MEL-2
[7] = system: XF498
[8] = system: HOP-92
[9] = system: EKVX
[10] = system: HL-60
[11] = system: A549
[12] = system: TK-10
[13] = system: SNB-78
[14] = system: HCC 2998
[15] = system: SW-620
[16] = system: HCT-15
[17] = system: OVCAR-4
[18] = system: HOP-62
[19] = system: HCT-116
[20] = system: OVCAR-8
[21] = system: SK-MEL-28
[22] = system: CAKI-1
[23] = system: NCI-H460
[24] = system: UO-31
[25] = system: RXF 631
[26] = system: K562
[27] = system: SK-MEL-5
[28] = system: SF-539
[29] = system: OVCAR-5
[30] = system: 786-0
[31] = system: NCI-H23
[32] = system: HT-29
[33] = system: COLO 205
[34] = system: DMS-273
[35] = system: UACC-257
[36] = system: ACHN
[37] = system: U-251
[38] = system: MOLT-4
[39] = system: Malme-3M
[40] = system: SN12C
[41] = system: NCI-H522
[42] = system: LOX IMVI
[43] = system: CCRF-CEM
[44] = system: NCI-H226
[45] = system: RPMI-8226
[46] = system: IGROV-1
[47] = system: UACC-62
[48] = system: M14
[49] = system: SK-OV-3
[50] = system: HOP-18
[51] = system: DLD-1
[52] = system: SNB-19
[53] = system: SNB-75
[54] = system: OVCAR-3
[55] = system: DMS-114
[56] = system: KM12
[57] = system: RXF 393
[58] = system: A498
[59] = system: M19-MEL

COc1cc2c(cn1)[nH]c1ccccc12
GI50 [1]: 88.1 µM (inactive)
GI50 [2]: > 100 µM (inactive)
GI50 [3]: > 100 µM (inactive)
GI50 [4]: 72.3 µM (inactive)
GI50 [5]: > 100 µM (inactive)
GI50 [6]: > 100 µM (inactive)
GI50 [7]: 35.8 µM (inactive)
GI50 [8]: > 100 µM (inactive)
GI50 [9]: > 100 µM (inactive)
GI50 [10]: > 100 µM (inactive)
GI50 [11]: > 100 µM (inactive)
GI50 [12]: > 100 µM (inactive)
GI50 [13]: 59.3 µM (inactive)
GI50 [14]: > 100 µM (inactive)
GI50 [15]: 46.3 µM (inactive)
GI50 [16]: > 100 µM
GI50 [17]: > 100 µM (inactive)
GI50 [18]: > 100 µM (inactive)
GI50 [19]: > 100 µM (inactive)
GI50 [20]: > 100 µM (inactive)
GI50 [21]: 67.5 µM (inactive)
GI50 [22]: 94.2 µM (inactive)
GI50 [23]: > 100 µM (inactive)
GI50 [24]: > 100 µM (inactive)
GI50 [25]: > 100 µM (inactive)
GI50 [26]: > 100 µM (inactive)
GI50 [27]: 47.4 µM (inactive)
GI50 [28]: > 100 µM (inactive)
GI50 [29]: > 100 µM (inactive)
GI50 [30]: > 100 µM (inactive)
GI50 [31]: > 100 µM (inactive)
GI50 [32]: > 100 µM (inactive)
GI50 [33]: > 100 µM (inactive)
GI50 [34]: > 100 µM (inactive)
GI50 [35]: 85.1 µM (inactive)
GI50 [36]: > 100 µM (inactive)
GI50 [37]: > 100 µM (inactive)
GI50 [38]: > 100 µM (inactive)
GI50 [39]: > 100 µM (inactive)
GI50 [40]: > 100 µM (inactive)
GI50 [41]: 61.2 µM (inactive)
GI50 [42]: > 100 µM (inactive)
GI50 [43]: > 100 µM (inactive)
GI50 [44]: > 100 µM (inactive)
GI50 [45]: > 100 µM (inactive)
GI50 [46]: > 100 µM (inactive)
GI50 [47]: 53 µM (inactive)
GI50 [48]: > 100 µM (inactive)
GI50 [49]: > 100 µM (inactive)
GI50 [50]: > 100 µM (inactive)
GI50 [51]: > 100 µM (inactive)
GI50 [52]: > 100 µM (inactive)
GI50 [53]: 55.8 µM (inactive)
GI50 [54]: > 100 µM (inactive)
GI50 [55]: 81.5 µM (inactive)
GI50 [56]: > 100 µM (inactive)

C=C1CC(CC(=O)C(C)CC2CC(=C)C(=O)O2)OC1=O (stereo unspecified)
GI50 [1]: 22.4 µM (inactive)
GI50 [2]: 3.3 µM (inactive)
GI50 [3]: 33 µM (inactive)
GI50 [4]: 12.8 µM (inactive)
GI50 [5]: > 100 µM (inactive)
GI50 [6]: 9.35 µM (inactive)
GI50 [7]: 23.8 µM (inactive)
GI50 [8]: 17.7 µM (inactive)
GI50 [9]: 52.2 µM (inactive)
GI50 [10]: 14 µM (inactive)
GI50 [11]: 52 µM (inactive)
GI50 [57]: 18.7 µM (inactive)
GI50 [12]: 19.1 µM (inactive)
GI50 [13]: 17.3 µM (inactive)
GI50 [14]: 37.1 µM (inactive)
GI50 [15]: 11 µM (inactive)
GI50 [16]: 18.1 µM
GI50 [17]: 16.4 µM (inactive)
GI50 [18]: > 100 µM (inactive)
GI50 [19]: 12.1 µM (inactive)
GI50 [20]: 28 µM (inactive)
GI50 [21]: 15.8 µM (inactive)
GI50 [23]: 32.1 µM (inactive)
GI50 [24]: > 100 µM (inactive)
GI50 [25]: 46.3 µM (inactive)
GI50 [26]: 22.7 µM (inactive)
GI50 [27]: 33.3 µM (inactive)
GI50 [28]: 18.8 µM (inactive)
GI50 [29]: 65.9 µM (inactive)
GI50 [30]: 20.3 µM (inactive)
GI50 [31]: 18.8 µM (inactive)
GI50 [32]: 26.2 µM (inactive)
GI50 [58]: 46.5 µM (inactive)
GI50 [33]: 13.6 µM (inactive)
GI50 [34]: 23.2 µM (inactive)
GI50 [35]: 16.4 µM (inactive)
GI50 [36]: 18.6 µM (inactive)
GI50 [37]: 71.4 µM (inactive)
GI50 [38]: 11.5 µM (inactive)
GI50 [39]: 14.5 µM (inactive)
GI50 [40]: 16.7 µM (inactive)
GI50 [42]: 15.6 µM (inactive)
GI50 [43]: 6.3 µM (inactive)
GI50 [59]: 16.3 µM (inactive)
GI50 [46]: 32.8 µM (inactive)
GI50 [47]: 15.8 µM (inactive)
GI50 [48]: 15.8 µM (inactive)
GI50 [49]: > 100 µM (inactive)
GI50 [50]: 22.4 µM (inactive)
GI50 [51]: 14.4 µM (inactive)
GI50 [52]: > 100 µM (inactive)
GI50 [53]: 61.4 µM (inactive)
GI50 [54]: 17.7 µM (inactive)
GI50 [55]: 21.6 µM (inactive)
GI50 [56]: 10.5 µM (inactive)
